Experimental findings from patent US10596291B2, “Effective anti-bacteria and anti-viral air treatment device” (KONINKLIJKE PHILIPS N.V., priority 2014, dated 2020) are described below.

The first series is described as follows: Particle generation and ozone consumption by type of terpene in 26.5 m^3 test chamber.
Settings: not given
Type of series: physicochemical. How it is done: Some further measurements were done with setups as describe above. Data in relation to particle generation and ozone consumption as function of type of terpene were determined. […] It is clear that e.g. eucalyptol and thymol is most desired amongst these four options.
Consider `Cc1ccc(C(C)C)cc1O` [Carvacrol], for which the Particle yield was 851.8 10^6/mol and the “average O3 consumption” value amounted to 0%.

y-terpinene: the Particle yield is listed as 112499.9 10^6/mol and the “average O3 consumption” value was found to be 19%.

Still in this series, the particulars now being: terpene approx. 1 mg/m^3; 26.5 m^3 test chamber; initial ozone 100 ppb.
Turning to `CC12CCC(CC1)C(C)(C)O2` [Eucalyptol, Eucalyptol (1,8-cineol)], the Particle yield is 779.9 10^6/mol.

As to `C=CCc1ccc(O)c(OC)c1` [Eugenol], the Particle yield is reported as 18742.9 10^6/mol.

On to `CC(C)=CCC/C(C)=C/CO` [Geraniol], for which the Particle yield is 57608.1 10^6/mol.

On to `C=C(C)[C@H]1CC=C(C)CC1` [Limonene], for which the Particle yield is listed as 94003.4 10^6/mol.

For the molecule `C=CC(C)(O)CCC=C(C)C` (stereo not shown) [Linalool], the Particle yield is reported as 76911.2 10^6/mol.

With `Cc1ccc(C(C)C)c(O)c1` [Thymol], the Particle yield is listed as 498.2 10^6/mol.

Staying with this series, now noted: terpene concentration 1 mg/m^3; 26.5 m^3 test chamber; initial ozone 100 ppb.
For `CC12CCC(CC1)C(C)(C)O2` [Eucalyptol, Eucalyptol (1,8-cineol)], the “average O3 consumption” value was found to be 2%.

With `C=CCc1ccc(O)c(OC)c1` [Eugenol], the “average O3 consumption” value is recorded as 15%.

`CC(C)=CCC/C(C)=C/CO` [Geraniol]: the “average O3 consumption” value turned out to be 54%.

As for `C=C(C)[C@H]1CC=C(C)CC1` [Limonene], the “average O3 consumption” value amounted to 31%.

For the molecule `C=CC(C)(O)CCC=C(C)C` (stereo not shown) [Linalool], the “average O3 consumption” value was 44%.

As to `Cc1ccc(C(C)C)c(O)c1` [Thymol], the “average O3 consumption” value is given as 2%.
